Assay results from PubChem BioAssay AID1963849 (Molecular Pharmacology Branch, DTP, NCI, 2024).

Test system: 299254-011-R-J1-PDC complex spheroid viability
Experiment: Anticancer human tumor 299254-011-R-J1-PDC patient-derived melanoma cell line growth inhibition [POLQ]
Conditions: for IC50: curve of first compound; for viability, T/C: stronger effect = lower value
How it was run: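 Growth inhibition in 3D: complex spheroids (tumor PDC, HUVEC, MSC) treated with POLQ inhibitor combinations; where Cmax unknown, highest tested concentration 10 microM, except SN-38 at 1 microM.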

[1] = second compound 0.0316 µM, first compound 0.0316 µM
[2] = second compound 0.0316 µM, first compound 0.1 µM
[3] = second compound 0.0316 µM, first compound 0.316 µM
[4] = second compound 0.0316 µM, first compound 1 µM
[5] = second compound 0.0316 µM, first compound 3.16 µM
[6] = second compound 0.0316 µM, first compound 10 µM
[7] = second compound 0.1 µM, first compound 0.0316 µM
[8] = second compound 0.1 µM, first compound 0.1 µM
[9] = second compound 0.1 µM, first compound 0.316 µM
[10] = second compound 0.1 µM, first compound 1 µM
[11] = second compound 0.1 µM, first compound 3.16 µM
[12] = second compound 0.1 µM, first compound 10 µM
[13] = second compound 0.316 µM, first compound 0.0316 µM
[14] = second compound 0.316 µM, first compound 0.1 µM
[15] = second compound 0.316 µM, first compound 0.316 µM
[16] = second compound 0.316 µM, first compound 1 µM
[17] = second compound 0.316 µM, first compound 3.16 µM
[18] = second compound 0.316 µM, first compound 10 µM
[19] = second compound 1 µM, first compound 0.0316 µM
[20] = second compound 1 µM, first compound 0.1 µM
[21] = second compound 1 µM, first compound 0.316 µM
[22] = second compound 1 µM, first compound 1 µM
[23] = second compound 1 µM, first compound 3.16 µM
[24] = second compound 1 µM, first compound 10 µM
[25] = second compound 3.16 µM, first compound 0.0316 µM
[26] = second compound 3.16 µM, first compound 0.1 µM
[27] = second compound 3.16 µM, first compound 0.316 µM
[28] = second compound 3.16 µM, first compound 1 µM
[29] = second compound 3.16 µM, first compound 3.16 µM
[30] = second compound 3.16 µM, first compound 10 µM
[31] = second compound 10 µM, first compound 0.0316 µM
[32] = second compound 10 µM, first compound 0.1 µM
[33] = second compound 10 µM, first compound 0.316 µM
[34] = second compound 10 µM, first compound 1 µM
[35] = second compound 10 µM, first compound 3.16 µM
[36] = second compound 10 µM, first compound 10 µM
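Further: spheroids exposed to drugs for one week before measurement.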
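Wherever viability, T/C is given: percent viability relative to DMSO vehicle control taken as 100%.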

CC1COCCN1c1cc(-c2ccnn2C)c2ccnc(-c3ccn[nH]3)c2n1 (stereo unspecified) + COC1C(OC(N)=O)C(O)C(Oc2ccc3c(O)c(NC(=O)c4ccc(O)c(CC=C(C)C)c4)c(=O)oc3c2C)OC1(C)C
IC50 (second compound 0.0316 µM): 216 nM | IC50 (second compound 0.1 µM): 232 nM | IC50 (second compound 0.316 µM): 236 nM | IC50 (second compound 1 µM): 242 nM | IC50 (second compound 3.16 µM): 236 nM | IC50 (second compound 10 µM): 295 nM | viability, T/C [1]: 104% | viability, T/C [2]: 71.6% | viability, T/C [3]: 39% | viability, T/C [4]: 28.6% | viability, T/C [5]: 36.5% | viability, T/C [6]: 19.8% | viability, T/C [7]: 106% | viability, T/C [8]: 69.5% | viability, T/C [9]: 43% | viability, T/C [10]: 27% | viability, T/C [11]: 36.9% | viability, T/C [12]: 18.8% | viability, T/C [13]: 88.8% | viability, T/C [14]: 63.6% | viability, T/C [15]: 46.7% | viability, T/C [16]: 28.9% | viability, T/C [17]: 31.3% | viability, T/C [18]: 18.9% | viability, T/C [19]: 92.4% | viability, T/C [20]: 72.2% | viability, T/C [21]: 43.2% | viability, T/C [22]: 26.9% | viability, T/C [23]: 38.4% | viability, T/C [24]: 16.6% | viability, T/C [25]: 94.6% | viability, T/C [26]: 75% | viability, T/C [27]: 42% | viability, T/C [28]: 26.5% | viability, T/C [29]: 35.9% | viability, T/C [30]: 22.7% | viability, T/C [31]: 102% | viability, T/C [32]: 82.1% | viability, T/C [33]: 47.9% | viability, T/C [34]: 30.6% | viability, T/C [35]: 41.7% | viability, T/C [36]: 20%

CC(=O)O[C@H]1C(=O)[C@@]2(C)[C@H]([C@H](OC(=O)c3ccccc3)[C@]3(O)C[C@H](OC(=O)[C@H](O)[C@@H](NC(=O)c4ccccc4)c4ccccc4)C(C)=C1C3(C)C)[C@]1(OC(C)=O)CO[C@@H]1C[C@@H]2O + Cc1cccc(N(C)C(=O)C2C(O)CCN2c2nc(C)cc(C(F)(F)F)c2C#N)c1
IC50 (second compound 0.0316 µM): 123 nM | IC50 (second compound 0.1 µM): 91.7 nM | IC50 (second compound 0.316 µM): 69.8 nM | IC50 (second compound 1 µM): 73.4 nM | IC50 (second compound 3.16 µM): 26.8 nM | IC50 (second compound 10 µM): < 9.49 nM | viability, T/C (second compound 0.0316 µM, first compound 0.00949 µM): 99.2% | viability, T/C (second compound 0.0316 µM, first compound 0.03 µM): 79.7% | viability, T/C (second compound 0.0316 µM, first compound 0.0949 µM): 55.1% | viability, T/C (second compound 0.0316 µM, first compound 0.3 µM): 35.7% | viability, T/C (second compound 0.0316 µM, first compound 0.949 µM): 22% | viability, T/C (second compound 0.0316 µM, first compound 3 µM): 24.4% | viability, T/C (second compound 0.1 µM, first compound 0.00949 µM): 84.3% | viability, T/C (second compound 0.1 µM, first compound 0.03 µM): 70.7% | viability, T/C (second compound 0.1 µM, first compound 0.0949 µM): 49.6% | viability, T/C (second compound 0.1 µM, first compound 0.3 µM): 31.3% | viability, T/C (second compound 0.1 µM, first compound 0.949 µM): 23.2% | viability, T/C (second compound 0.1 µM, first compound 3 µM): 20.7% | viability, T/C (second compound 0.316 µM, first compound 0.00949 µM): 90.2% | viability, T/C (second compound 0.316 µM, first compound 0.03 µM): 68.6% | viability, T/C (second compound 0.316 µM, first compound 0.0949 µM): 41.7% | viability, T/C (second compound 0.316 µM, first compound 0.3 µM): 33.1% | viability, T/C (second compound 0.316 µM, first compound 0.949 µM): 29.8% | viability, T/C (second compound 0.316 µM, first compound 3 µM): 23.4% | viability, T/C (second compound 1 µM, first compound 0.00949 µM): 84.9% | viability, T/C (second compound 1 µM, first compound 0.03 µM): 69.2% | viability, T/C (second compound 1 µM, first compound 0.0949 µM): 43.4% | viability, T/C (second compound 1 µM, first compound 0.3 µM): 31.6% | viability, T/C (second compound 1 µM, first compound 0.949 µM): 21.3% | viability, T/C (second compound 1 µM, first compound 3 µM): 23.2% | viability, T/C (second compound 3.16 µM, first compound 0.00949 µM): 68.5% | viability, T/C (second compound 3.16 µM, first compound 0.03 µM): 48% | viability, T/C (second compound 3.16 µM, first compound 0.0949 µM): 33.8% | viability, T/C (second compound 3.16 µM, first compound 0.3 µM): 27.5% | viability, T/C (second compound 3.16 µM, first compound 0.949 µM): 21.7% | viability, T/C (second compound 3.16 µM, first compound 3 µM): 21.4% | viability, T/C (second compound 10 µM, first compound 0.00949 µM): 49% | viability, T/C (second compound 10 µM, first compound 0.03 µM): 31.2% | viability, T/C (second compound 10 µM, first compound 0.0949 µM): 20.4% | viability, T/C (second compound 10 µM, first compound 0.3 µM): 23.2% | viability, T/C (second compound 10 µM, first compound 0.949 µM): 22.7% | viability, T/C (second compound 10 µM, first compound 3 µM): 19.6%

COc1cc(C2c3cc4c(cc3C(OC3OC5COC(C)OC5C(O)C3O)C3COC(=O)C23)OCO4)cc(OC)c1O (stereo unspecified) + Cc1cccc(N(C)C(=O)C2C(O)CCN2c2nc(C)cc(C(F)(F)F)c2C#N)c1
IC50 (second compound 0.0316 µM): 9540 nM | IC50 (second compound 0.1 µM): > 10000 nM | IC50 (second compound 0.316 µM): > 10000 nM | IC50 (second compound 1 µM): > 10000 nM | IC50 (second compound 3.16 µM): > 10000 nM | IC50 (second compound 10 µM): > 10000 nM | viability, T/C [1]: 87.6% | viability, T/C [2]: 89.2% | viability, T/C [3]: 102% | viability, T/C [4]: 86.8% | viability, T/C [5]: 75.6% | viability, T/C [6]: 48.9% | viability, T/C [7]: 98% | viability, T/C [8]: 91.9% | viability, T/C [9]: 107% | viability, T/C [10]: 87.2% | viability, T/C [11]: 68% | viability, T/C [12]: 54.8% | viability, T/C [13]: 94.6% | viability, T/C [14]: 102% | viability, T/C [15]: 101% | viability, T/C [16]: 99.5% | viability, T/C [17]: 70% | viability, T/C [18]: 59.5% | viability, T/C [19]: 107% | viability, T/C [20]: 93.1% | viability, T/C [21]: 91.6% | viability, T/C [22]: 79.2% | viability, T/C [23]: 76% | viability, T/C [24]: 58% | viability, T/C [25]: 98.5% | viability, T/C [26]: 86.5% | viability, T/C [27]: 88% | viability, T/C [28]: 97.3% | viability, T/C [29]: 74.8% | viability, T/C [30]: 53.9% | viability, T/C [31]: 84.5% | viability, T/C [32]: 86.7% | viability, T/C [33]: 86.1% | viability, T/C [34]: 82.8% | viability, T/C [35]: 60.2% | viability, T/C [36]: 59.2%
